The IC50 is the midpoint of a concentration-inhibition curve.

The target of this assay is IRAK4 (Homo sapiens, UniProt Q9NWZ3). Nature of the assay: biochemical.
Chain of IRAK4 (Q9NWZ3 whole entry): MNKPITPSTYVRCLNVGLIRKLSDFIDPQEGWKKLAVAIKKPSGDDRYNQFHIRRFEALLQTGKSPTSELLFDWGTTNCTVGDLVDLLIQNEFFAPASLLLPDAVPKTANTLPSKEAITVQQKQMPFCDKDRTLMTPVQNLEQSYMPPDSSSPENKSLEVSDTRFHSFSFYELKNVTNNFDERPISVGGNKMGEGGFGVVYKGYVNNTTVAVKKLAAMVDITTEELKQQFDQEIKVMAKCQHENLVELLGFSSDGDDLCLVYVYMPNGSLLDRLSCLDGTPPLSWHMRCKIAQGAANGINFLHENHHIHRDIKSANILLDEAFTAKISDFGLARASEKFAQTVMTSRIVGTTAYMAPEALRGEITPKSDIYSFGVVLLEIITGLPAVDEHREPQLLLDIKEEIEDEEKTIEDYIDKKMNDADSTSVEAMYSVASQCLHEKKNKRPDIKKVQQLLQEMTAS

In turn, `CN(C)C` [TMA] returned an IC50 of 3.4 µM.
